Biological target: MAGE-A11:PCF11 (Homo sapiens (Human), UniProt P43364)
Assay: TR-FRET single point screening at 15 μM
Format: binding
Parameters: unit not given here
Outline: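 Competition TR-FRET: compounds at final 15 μM mixed with 200 nM FAM-PCF11_4, 5 nM GST-MAGEA11 and 5 nM Tb-anti-GST in Tris pH 7.5/MgCl2/BSA/DTT buffer, room temperature, 90 min. Emission ratio 520/490 nm (340 nm excitation) expressed as % inhibition relative to positive and negative controls.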

[1] = single point TR-FRET screening at 15 μM against MAGE-A11:PCF11
[2] = single point TR-FRET screening of quinoline compounds against MAGE-A11:PCF11, 15 μM

MAGE-A11:PCF11, sequence (P43364 218-429): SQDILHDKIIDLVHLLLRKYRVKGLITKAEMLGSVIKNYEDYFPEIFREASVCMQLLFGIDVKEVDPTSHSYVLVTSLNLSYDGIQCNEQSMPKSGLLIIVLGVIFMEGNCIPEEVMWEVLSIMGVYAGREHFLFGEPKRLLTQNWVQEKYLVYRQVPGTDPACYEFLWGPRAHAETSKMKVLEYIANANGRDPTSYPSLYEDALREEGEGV

Compound	TR-FRET signal [1]	TR-FRET signal [2]
CCOC(=O)c1cnc2c(CC)cccc2c1NCCN1CCOCC1 [SJ000279714]	−6.103	–
CCOC(=O)c1cnc2ccc(F)cc2c1NCCCN1CCOCC1 [SJ000279864]	–	−0.3915
CCOC(=O)c1cnc2ccc(C(=O)O)cc2c1N1CCN(CCO)CC1 [SJ000280902]	−0.5958	–
CCOC(=O)c1cnc2c(C(F)(F)F)cccc2c1NCCN1CCOCC1 [SJ000281260]	0.8341	–
CCN(CC)CCCC(C)Nc1ccnc2cc(Cl)ccc12 (centres unmarked) [SJ000285185]	−2.592	–
CCN(CC)CCCC(C)Nc1c2ccc(Cl)cc2nc2ccc(OC)cc12 (centres unmarked) [SJ000285202]	−265.7	–
CCN(CCO)CCCC(C)Nc1ccnc2cc(Cl)ccc12 (centres unmarked) [SJ000286026]	3.702	–
Clc1ccc2c(NC3CCN(Cc4ccc(Cl)o4)CC3)ccnc2c1 [SJ000311180]	0.6827	–
Oc1ccc(Br)cc1CN1CCC(Nc2ccnc3cc(Cl)ccc23)CC1 [SJ000311181]	−1.209	–
Clc1ccc2c(NCCCN(Cc3ccccc3)CC3CC=CCC3)ccnc2c1 (centres unmarked) [SJ000311182]	–	16.09
CC(C)CCN(CCCNc1ccnc2cc(Cl)ccc12)Cc1ccccc1 [SJ000311183]	–	2.673
CC(CCN(CCCNc1ccnc2cc(Cl)ccc12)Cc1ccccc1)c1ccccc1 (centres unmarked) [SJ000311184]	–	17.35
Cc1ccsc1CNCCCNc1ccnc2cc(Cl)ccc12 [SJ000311189]	–	6.554
Cc1ccc(CNCCCNc2ccnc3cc(Cl)ccc23)s1 [SJ000311190]	–	10.83
CCCN(CCCNc1ccnc2cc(Cl)ccc12)Cc1ccc(Br)o1 [SJ000311195]	–	14.48
CCCN(CCCCNc1ccnc2cc(Cl)ccc12)CCCSC [SJ000311197]	3.903	–
CCCN(CCCCNc1ccnc2cc(Cl)ccc12)Cc1ccc[nH]1 [SJ000311198]	−0.9977	–
CCCN(CCCCNc1ccnc2cc(Cl)ccc12)Cc1sccc1C [SJ000311199]	6.494	–
CCCN(CCCCNc1ccnc2cc(Cl)ccc12)Cc1ccoc1 [SJ000311200]	12.31	–
CCCN(CCCCNc1ccnc2cc(Cl)ccc12)Cc1cc(F)ccc1OC [SJ000311202]	5.396	–
CCCN(CCCCNc1ccnc2cc(Cl)ccc12)Cc1c(F)cccc1OC [SJ000311203]	6.844	–

Compound	TR-FRET signal [1]	TR-FRET signal [2]
CCCN(CCCCNc1ccnc2cc(Cl)ccc12)Cc1c[nH]c2ccccc12 [SJ000311204]	−3.378	–
CCCN(CCCCNc1ccnc2cc(Cl)ccc12)Cc1ccccc1 [SJ000311205]	7.684	–
c1ccc(Oc2ccc3c(NCCCNCc4ccco4)ccnc3c2)cc1 [SJ000311206]	–	14.59
COc1ccccc1Oc1ccc2c(NCCCNCc3ccco3)ccnc2c1 [SJ000311210]	–	24.56
COc1cccc(Oc2ccc3c(NCCCNCc4ccco4)ccnc3c2)c1 [SJ000311214]	–	29.11
COc1ccc(Oc2ccc3c(NCCCNCc4ccco4)ccnc3c2)cc1 [SJ000311218]	–	36.25
Fc1ccc(Oc2ccc3c(NCCCNCc4ccco4)ccnc3c2)cc1 [SJ000311222]	–	9.365
Clc1ccc(Oc2ccc3c(NCCCNCc4ccco4)ccnc3c2)cc1 [SJ000311226]	–	37.65
CN(C)c1cccc(Oc2ccc3c(NCCCNCc4ccco4)ccnc3c2)c1 [SJ000311230]	–	63.42
CC(C)(C)c1ccc(Oc2ccc3c(NCCCNCc4ccco4)ccnc3c2)cc1 [SJ000311234]	–	57.54
Fc1ccc(-c2ccc3c(NCCCNCc4ccco4)ccnc3c2)cc1 [SJ000311238]	–	27.43
CC(C)CCc1ccc2c(NCCCNCc3ccco3)ccnc2c1 [SJ000311246]	–	13.01
c1coc(CNCCCNc2ccnc3cc(CC4CCCCC4)ccc23)c1 [SJ000311250]	–	40.66
c1ccc(CCc2ccc3c(NCCCNCc4ccco4)ccnc3c2)cc1 [SJ000311254]	–	15.95
CC(C)Cc1ccc2c(NCCCNCc3ccco3)ccnc2c1 [SJ000311258]	–	8.874
c1coc(CNCCCNc2ccnc3cc(C4CCCCC4)ccc23)c1 [SJ000311262]	–	32.96
CCC(CC)c1ccc2c(NCCCNCc3ccco3)ccnc2c1 [SJ000311266]	–	24.56
FC(F)(F)c1cc(-c2ccc3c(NCCCNCc4ccco4)ccnc3c2)cc(C(F)(F)F)c1 [SJ000311270]	–	59.71
c1coc(CNCCCNc2ccnc3cc(-c4cccc5ccccc45)ccc23)c1 [SJ000311274]	–	41.57
FC(F)(F)c1ccc(-c2ccc3c(NCCCNCc4ccco4)ccnc3c2)cc1 [SJ000311278]	–	56.21
c1ccc(-c2ccc3c(NCCCNCc4ccco4)ccnc3c2)cc1 [SJ000311282]	–	28.69

Compound	TR-FRET signal [1]	TR-FRET signal [2]
CC(C)(C)c1ccc(-c2ccc3c(NCCCNCc4ccco4)ccnc3c2)cc1 [SJ000311286]	–	73.5
c1coc(CNCCCNc2ccnc3cc(-c4ccc5c(c4)OCO5)ccc23)c1 [SJ000311290]	–	30.79
COc1ccc(-c2ccc3c(NCCCNCc4ccco4)ccnc3c2)cc1 [SJ000311294]	–	7.824
FC(F)(F)c1cccc(Cc2ccc3c(NCCCNCc4ccco4)ccnc3c2)c1 [SJ000311298]	–	27.01
N#Cc1ccc(Cc2ccc3c(NCCCNCc4ccco4)ccnc3c2)cc1 [SJ000311302]	–	20.43
c1ccc(Cc2ccc3c(NCCCNCc4ccco4)ccnc3c2)cc1 [SJ000311306]	–	64.54
COc1cc(Cc2ccc3c(NCCCNCc4ccco4)ccnc3c2)cc(OC)c1 [SJ000311310]	–	23.79
Clc1cccc(Cl)c1Cc1ccc2c(NCCCNCc3ccco3)ccnc2c1 [SJ000311314]	–	32.4
Cc1cc(C)cc(Cc2ccc3c(NCCCNCc4ccco4)ccnc3c2)c1 [SJ000311318]	–	39.31
Fc1ccc(Cc2ccc3c(NCCCNCc4ccco4)ccnc3c2)c(Cl)c1 [SJ000311322]	–	24.77
Cc1ccc(CNCCCNc2ccnc3cc(Cl)ccc23)o1 [SJ000311326]	–	10.2
Clc1ccc2c(NCCCN(Cc3ccccc3)Cc3ccco3)ccnc2c1 [SJ000312668]	–	0.5217
Cc1ccc(CN(CCCNc2ccnc3cc(Cl)ccc23)Cc2ccccc2)o1 [SJ000312669]	–	2.84
Clc1ccc2c(NCCCN(Cc3ccccc3)Cc3ccc(Br)o3)ccnc2c1 [SJ000312671]	–	−1.797
Clc1ccc2c(NCCCN(Cc3ccccc3)Cc3cccs3)ccnc2c1 [SJ000312672]	–	4.744
Cc1ccc(CN(CCCNc2ccnc3cc(Cl)ccc23)Cc2ccccc2)s1 [SJ000312673]	–	4.629
Clc1ccc2c(NCCCN(Cc3ccccc3)Cc3ccsc3)ccnc2c1 [SJ000312675]	–	9.598
Clc1ccc2c(NCCCN(Cc3ccccc3)Cc3nccs3)ccnc2c1 [SJ000312676]	–	−4.148
Clc1ccc2c(NCCCN(Cc3ccccc3)Cc3ccccn3)ccnc2c1 [SJ000312678]	–	−3.851
Clc1ccc2c(NCCCN(Cc3ccccc3)Cc3ccncc3)ccnc2c1 [SJ000312679]	–	−5.573
Clc1ccc2c(NCCCCN(Cc3ccccc3)Cc3ccco3)ccnc2c1 [SJ000312681]	12.05	–

Compound	TR-FRET signal [1]	TR-FRET signal [2]
Cc1ccc(CN(CCCCNc2ccnc3cc(Cl)ccc23)Cc2ccccc2)o1 [SJ000312682]	2.013	–
Clc1ccc2c(NCCCCN(Cc3ccccc3)Cc3ccc(Br)o3)ccnc2c1 [SJ000312684]	14.96	–
Clc1ccc2c(NCCCCN(Cc3ccccc3)Cc3ccoc3)ccnc2c1 [SJ000312685]	14.9	–
Clc1ccc2c(NCCCCN(Cc3ccccc3)Cc3cccs3)ccnc2c1 [SJ000312686]	25.05	–
Cc1ccc(CN(CCCCNc2ccnc3cc(Cl)ccc23)Cc2ccccc2)s1 [SJ000312687]	20.71	–
Clc1ccc2c(NCCCCN(Cc3ccccc3)Cc3ccc(Br)s3)ccnc2c1 [SJ000312688]	22.04	–
Clc1ccc2c(NCCCCN(Cc3ccccc3)Cc3ccsc3)ccnc2c1 [SJ000312689]	16.3	–
Clc1ccc2c(NCCCCN(Cc3ccccc3)Cc3ccccn3)ccnc2c1 [SJ000312690]	9.531	–
Clc1ccc2c(NCCCCN(Cc3ccccc3)Cc3ccc[nH]3)ccnc2c1 [SJ000312692]	28.28	–
COc1cccc(CN(CCCCNc2ccnc3cc(Cl)ccc23)Cc2ccccc2)c1O [SJ000312694]	7.676	–
COc1ccc(O)c(CN(CCCCNc2ccnc3cc(Cl)ccc23)Cc2ccccc2)c1 [SJ000312696]	6.634	–
Oc1ccccc1CN(CCCCNc1ccnc2cc(Cl)ccc12)Cc1ccccc1 [SJ000312697]	24.83	–
COc1ccccc1N1CCN(c2c(S(=O)(=O)c3ccccc3)cnc3ccc(C)cc23)CC1 [SJ000315081]	−19.55	–
Cc1ccc2ncc(S(=O)(=O)c3ccccc3)c(N3CCN(c4ccccc4F)CC3)c2c1 [SJ000315092]	−33.48	–
O=S(=O)(c1ccccc1)c1cnc2ccc(F)cc2c1N1CCN(c2ccccc2F)CC1 [SJ000315166]	−99.06	–
O=S(=O)(c1ccccc1)c1cnc2ccc(Cl)cc2c1N1CCN(c2ccccc2F)CC1 [SJ000315176]	−5.441	–
COc1ccc2ncc(S(=O)(=O)c3ccccc3)c(N3CCN(c4ccccc4F)CC3)c2c1 [SJ000315263]	−252.5	–
CCCCN(CCCC)CC(=O)Nc1c2c(nc3ccccc13)N(C)CC2 [SJ000331523]	2.503	–
CCN(CC)CC(=O)Nc1c2c(nc3ccccc13)N(C)CC2 [SJ000331537]	11.78	–
CN(C)CC(=O)Nc1c2c(nc3ccccc13)N(C)CC2 [SJ000332030]	17.04	–
